Reference: publication PMC11853379, “Glioblastoma Cell Migration, Invasion and Vasculogenic Mimicry Downmodulated by Novel uPAcyclin Derivatives” (Cells, 2025)
Positions of bridges follow the written chain, without caps; N, C: chain ends. Residues, ends and D or L forms follow the SMILES beside them.

System: U87-MG cells
Assay type: cell-based, human
Procedure: The migration and invasion assays were performed with Boyden chambers, according to De Vincenzo et al., using 11 × 10^4 U87-MG and U251-MG glioblastoma cells/sample pre-treated for 40 min at 37 °C with the indicated effectors and then allowed to migrate for 3 h or to invade for 5 h at 37 °C toward 5% FBS in DMEM/0.1% BSA. The migrated or invaded cells were reported as a percentage of basal random migration or invasion and analyzed as reported in the Statistical Analyses section. The migration and invasion experiments were conducted in triplicate.
Figure 1 Binding of Ala peptides to U87-MG cells and effect of uPAcyclin and Ala peptides on U87-MG cellular migration. (A) A total of 2 × 10^6 U87-MG cells were pre-incubated for 30 min at 4 °C with increasing concentrations of unlabeled uPAcyclin and Ala peptides and then exposed to 50 nM of FITC-uPAcyclin for 2 h at 4 °C. Cell surface-associated fluorescence, as percentage of the sample with […], is shown. Experiments were carried out in duplicate, and the data shown here are representative of three independent experiments. (B) 11 × 10^4 U87-MG cells/sample were pre-treated for 40 min at 37 °C with increasing concentrations of uPAcyclin or the indicated Ala peptides and then assayed in Boyden chambers for 5% FBS-dependent migration for 3 h at 37 °C. At the end of incubation, the filters were processed as described in the Methods section. For clarity here and in the following Figures, Ala-x indicates the peptide with substituted x-position. For both assays, the p-values are in the range of 0.005 ≤ p ≤ 0.001, apart from [Ala1]uPAcyclin in the migration assay with p ≤ 0.05.
Alterations of the amino acid sequence may affect the peptide structure and may, in turn, alter its function. To test for differences in the inhibitory activity of the Ala-substituted peptides, U87-MG glioblastoma cells were subjected to a directional migration assay in Boyden chambers towards FBS, in the presence or in the absence of the indicated concentrations of uPAcyclin or one of its Ala-scan derivatives (Figure 1B).

IC50 of migration lower than the single variants (U87-MG migration, versus [Ala^2]uPAcyclin and [Ala^5]uPAcyclin) | Compound | IC50 of migration lower / inhibitory activity higher than parental uPAcyclin (U87-MG migration) | inhibitory activity on cell migration, comparison (in words) (U87-MG migration toward 5% FBS) | migration reduced to (percentage of basal random migration) (U87-MG, 5% FBS, concentration not given) | concentration at which dose-dependent inhibitory activity starts (U87-MG migration toward 5% FBS) | effect on FBS-induced directional migration (in words) (U87-MG, 1 µM peptide)
about 10 fold | CC(=O)N[C@@H](CCCCN)C(=O)N[C@@H](C)C(=O)N[C@H]1CCC(=O)NCCCC[C@@H](C(N)=O)NC(=O)[C@H](CC(C)C)NC(=O)[C@H](CCC(=O)O)NC(=O)[C@H](CCC(=O)O)NC(=O)[C@@H]2CCCN2C(=O)[C@H](C)NC(=O)[C@H](CO)NC1=O [[Ala^2,Ala^5]uPAcyclin] (Ac-KAESAPEELK-NH2; lactam 3-10) | ~100 fold | most potent peptide of the series | about 70% |  | 
 | CC(=O)N[C@@H](CCCCN)C(=O)N1CCC[C@H]1C(=O)N[C@H]1CCC(=O)NCCCC[C@@H](C(N)=O)NC(=O)[C@H](CC(C)C)NC(=O)[C@H](CCC(=O)O)NC(=O)[C@H](CCC(=O)O)NC(=O)[C@@H]2CCCN2C(=O)[C@@H]2CCCN2C(=O)[C@H](CO)NC1=O [uPAcyclin] (Ac-KPESPPEELK-NH2; lactam 3-10) |  |  |  | 1 pM | abolishes FBS-induced directional migration
